Results on 1 molecule are retold here after PMC9636434, “Discovery of small molecule agonists of the Relaxin Family Peptide Receptor 2” (Communications Biology, 2022).

In test [1] the test system is chimera RXFP2-1 (extracellular domain of RXFP2, transmembrane domain of RXFP1). The experiment in a line: HTRF cAMP assay in HEK293T cells transiently transfected with chimera RXFP2-1. Format: cell-based, human. How it is done: (§1) Fig. 2 6641 is an allosteric agonist of RXFP2. a HEK-RXFP2 cells co-treated with serial dilutions of INSL3 B dimer antagonist and 30 nM INSL3 or 0.28 µM 6641. HTRF cAMP dose-response inhibition curves were normalized to activity without antagonist co-treatment as 0% inhibition. b HTRF cAMP assay in HEK293T cells transiently transfected with WT or chimeric receptors. Chimera RXFP2-1 contains the extracellular domain of RXFP2 and the transmembrane domain of RXFP1, while chimera RXFP1-2 contains the extracellular domain of RXFP1 and the transmembrane domain of RXFP2. For each receptor, cAMP response induced by INSL3 and 6641 was normalized to FSK (2 µM) as 100% efficacy and DMSO vehicle as 0% efficacy. Emax and EC50 were calculated using four parameter nonlinear fit dose-response curves. Results are expressed as mean ± SEM of 3 independent experiments. Diagrams of the chimeric receptors were produced using GPCRdb.org[58], [59].
(§2) Complementary RXFP2-1 and RXFP1-2 chimeric receptors were used to further investigate the involvement of the RXFP2 extracellular and transmembrane domains on 6641 activity. RXFP2-1 has the extracellular domain of RXFP2 and transmembrane domain of RXFP1, and RXFP1-2 is its complement.
The HTRF Gs dynamic cAMP assay kit (CisBio, Bedford, MA) was used to measure intracellular cAMP accumulation in HEK293T cells (ATCC, Manassas, VA)[56]. […] The cell stock was verified mycoplasma free and authenticated by ATCC. Transient transfection was accomplished by treating cells in a 6-well plate with a mixture of 2 μg plasmid and 6 μL Lipofectamine 2000 (Invitrogen, Waltham, MA) per manufacturer’s protocol and incubating overnight. For cAMP measurement in 96-well format, HEK293T cells stably transfected with human RXFP2 (HEK-RXFP2), human RXFP1 (HEK-RXFP1), mouse Rxfp1 (HEK-Rxfp1) or transiently transfected with human RXFP1-RXFP2 chimeric receptors were seeded between 7500 and 30,000 cells per well, depending on cell line responsiveness, in serum-free DMEM medium and incubated overnight at 37 °C, 5% CO2. After 18 h, cells were treated with a titration of compound, 2 μM forskolin, or DMSO vehicle. Control wells were also treated with a titration of INSL3 (Phoenix Pharmaceuticals, Burlingame, CA) or human recombinant relaxin 2 (Peprotech, Cranbury, NJ). For the RXFP2 antagonist experiment, cells were co-treated with 0.28 μM compound or 30 nM INSL3 and a titration of the INSL3 B dimer antagonist[38],[39]. For the INSL3 allosteric modulation experiment, cells were co-treated with 0.025, 0.0025, or 0.00025 μM of compound and a titration of INSL3. […] Plates were incubated for 1 h at room temperature and the signal was read on a CLARIOstar plate reader (BMG Labtech, Ortenberg, Germany) at 665 and 620 nm emission wavelengths.

In another test the target is RXFP2 (Homo sapiens, UniProt Q8WXD0). The test is described as follows: Confirmatory CRE-luciferase reporter assay in HEK-CRE-Luc-RXFP2 cells. It counts as cell-based. On the set-up: FLAG (N); expressed in transfected cells. Conditions: for % Eff (CRE-luciferase): experiments (1)-(3). How it is done:
A quantitative high-throughput screening (HTS) of more than 80 K compounds of the NCATS/NIH diversity collection was performed at four concentrations in HEK293T cells stably expressing human RXFP2 to identify candidate agonists. A homogenous time resolved fluorescence (HTRF) assay was used to directly detect compound-induced cAMP accumulation, with forskolin or human recombinant INSL3 serving as positive controls. […] Selected compounds with reasonable activity in dose response were also tested in a confirmatory orthogonal screening using a cAMP response element (CRE) driven luciferase reporter assay in HEK-CRE-Luc-RXFP2 cells, and in a counter-screen with cells transfected with human relaxin/insulin-like family peptide receptor 1 (RXFP1). Finally, we performed an extensive structure activity relationship campaign (SAR) to increase both the agonist efficacy and potency of the lead series. […] A confirmatory CRE-luciferase cAMP screen was used to eliminate any potential false positives due to assay detection artifacts (Supplementary Fig. 1a).
HEK293T-CRE-Luc cells express luciferase under the control of the cAMP response element (CRE), which allows for indirect measurement of intracellular cAMP accumulation. HEK293T-CRE-Luc cells were stably transfected with human RXFP2 (HEK-CRE-Luc-RXFP2) or transiently transfected as above with mouse Rxfp2 (HEK-CRE-Luc-Rxfp2). HEK-CRE-Luc-RXFP2 and HEK-CRE-Luc-Rxfp2 cells were seeded at 15,000 and 30,000 cells per well, respectively, in 96-well plates using serum-free DMEM medium and incubated overnight at 37 °C, 5% CO2. After 18 h, cells were treated with a titration of compound, a titration of INSL3, 5 μM forskolin or DMSO vehicle. After treatment, cells were incubated for 3 h at 37 °C, 5% CO2. Plates were then allowed to equilibrate for 30 min at room temperature and an equal volume of substrate (Amplite Luciferase Reporter Gene Assay Kit, AAT Bioquest, Sunnyvale, CA) was added to each well. Plates were incubated for 40 min at room temperature protected from light and the luciferase output was read on a CLARIOstar plate reader.
Supplementary Fig. 1: Compounds activate both human and mouse RXFP2 receptors. a Confirmatory CRE-Luciferase screening of RXFP2 agonists in st a b ly transfected HEK-CRE-Luc-RXFP2 cells. b Activation of mouse RXFP2 receptor by the compounds in transiently transfected HEK293T-CRE-Luc cells. Compound response was normalized to 100 nM INSL3 as 100% efficacy and DMSO vehicle as 0% efficacy.
Results are expressed as mean ± SEM of 3 independent experim ents.
(1 picture or pasted object on this page, not shown here)
In general terms: A reporter such as luciferase makes a cellular process visible.

For another test, the target named is T1, WT RXFP2 (Homo sapiens, UniProt Q8WXD0).
T1 construct: FLAG (N); expressed in transfected cells; host or cells: HEK293T (transient)
The experiment in a line: HTRF cAMP assay in HEK293T cells transiently transfected with WT RXFP2. Format: cell-based. Conditions: for Emax: HEK-293T. How it is done: as §1, §2
The HTRF Gs dynamic cAMP assay kit (CisBio, Bedford, MA) was used to measure intracellular cAMP accumulation in HEK293T cells (ATCC, Manassas, VA)[56]. […] The cell stock was verified mycoplasma free and authenticated by ATCC. Transient transfection was accomplished by treating cells in a 6-well plate with a mixture of 2 μg plasmid and 6 μL Lipofectamine 2000 (Invitrogen, Waltham, MA) per manufacturer’s protocol and incubating overnight. For cAMP measurement in 96-well format, HEK293T cells stably transfected with human RXFP2 (HEK-RXFP2), human RXFP1 (HEK-RXFP1), mouse Rxfp1 (HEK-Rxfp1) or transiently transfected with human RXFP1-RXFP2 chimeric receptors were seeded between 7500 and 30,000 cells per well, depending on cell line responsiveness, in serum-free DMEM medium and incubated overnight at 37 °C, 5% CO2. After 18 h, cells were treated with a titration of compound, 2 μM forskolin, or DMSO vehicle. Control wells were also treated with a titration of INSL3 (Phoenix Pharmaceuticals, Burlingame, CA) or human recombinant relaxin 2 (Peprotech, Cranbury, NJ). For the RXFP2 antagonist experiment, cells were co-treated with 0.28 μM compound or 30 nM INSL3 and a titration of the INSL3 B dimer antagonist[38],[39]. For the INSL3 allosteric modulation experiment, cells were co-treated with 0.025, 0.0025, or 0.00025 μM of compound and a titration of INSL3. Cells were incubated for 1 h at 37 °C, 5% CO2, and then kit cAMP-d2 and anti-cAMP antibody were added per manufacturer protocol. Plates were incubated for 1 h at room temperature and the signal was read on a CLARIOstar plate reader (BMG Labtech, Ortenberg, Germany) at 665 and 620 nm emission wavelengths.
For orientation: In TR-FRET formats the signal depends on donor and acceptor labels being close together.

In the next test the target is FPR1 (Homo sapiens, UniProt P21462). The test is described as follows: PRESTO-Tango β-arrestin recruitment, FPR1. Format: cell-based. Conditions: 10 µM compound; basal level of detection 3-fold RLU. A general note: Arrestin recruitment assays detect the binding of arrestin to an activated receptor.

Several values for one entry are separate records, joined by “and”; a condition that tells them apart may be missing. Equal values may be shown once. Entries after “also recorded” stand apart in the source; their conditions may differ. Read-outs that look alike come from different tables or passages of the source.

Sequence of RXFP2 (Q8WXD0 whole entry): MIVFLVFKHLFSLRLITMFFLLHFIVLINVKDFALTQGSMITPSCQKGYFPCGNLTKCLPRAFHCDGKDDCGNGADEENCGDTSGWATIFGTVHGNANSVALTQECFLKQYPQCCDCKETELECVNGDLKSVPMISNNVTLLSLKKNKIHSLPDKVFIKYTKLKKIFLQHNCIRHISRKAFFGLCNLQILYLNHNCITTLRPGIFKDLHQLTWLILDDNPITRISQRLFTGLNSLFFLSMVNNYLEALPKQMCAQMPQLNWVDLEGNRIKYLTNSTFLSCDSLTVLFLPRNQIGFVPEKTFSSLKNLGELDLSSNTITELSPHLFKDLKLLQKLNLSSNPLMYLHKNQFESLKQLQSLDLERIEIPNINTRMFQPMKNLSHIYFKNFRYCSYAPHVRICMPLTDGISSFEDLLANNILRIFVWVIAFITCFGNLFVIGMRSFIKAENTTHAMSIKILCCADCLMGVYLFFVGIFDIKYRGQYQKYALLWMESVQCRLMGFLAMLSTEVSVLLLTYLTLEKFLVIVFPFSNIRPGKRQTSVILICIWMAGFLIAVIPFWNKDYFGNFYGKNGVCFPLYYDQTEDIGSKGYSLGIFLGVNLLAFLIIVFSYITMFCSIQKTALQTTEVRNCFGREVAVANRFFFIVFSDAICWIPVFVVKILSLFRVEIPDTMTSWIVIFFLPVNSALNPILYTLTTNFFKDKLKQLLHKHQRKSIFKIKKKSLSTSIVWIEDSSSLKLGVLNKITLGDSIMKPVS
T1 sequence (Q8WXD0 whole entry): as above
Sequence of FPR1 (P21462 whole entry): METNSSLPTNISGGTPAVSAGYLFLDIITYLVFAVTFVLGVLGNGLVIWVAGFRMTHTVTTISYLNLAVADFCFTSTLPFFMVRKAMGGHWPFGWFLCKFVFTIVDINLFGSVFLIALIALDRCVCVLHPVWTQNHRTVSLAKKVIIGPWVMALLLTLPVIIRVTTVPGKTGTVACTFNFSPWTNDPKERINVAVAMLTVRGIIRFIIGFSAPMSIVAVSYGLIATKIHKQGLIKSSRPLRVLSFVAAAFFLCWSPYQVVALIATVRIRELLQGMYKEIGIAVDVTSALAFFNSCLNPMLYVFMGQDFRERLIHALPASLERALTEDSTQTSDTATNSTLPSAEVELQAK

Broadly, the EC50 is the concentration at which the effect is half-maximal. One may read the Emax as the greatest response seen or fitted, relative to the assay's reference. With `O=C1Nc2ccc(-c3cc(C(F)(F)F)cc(C(F)(F)F)c3)cc2C(=O)N2CCN(C(=O)COc3ccc(OC(F)(F)F)cc3I)C[C@@H]12` [compound 6641], in test [1] (6641, individual experiments), the “EC50 (1)-(3)” value is recorded as “Inactive”. In addition, the “EC50 (AVERAGE)” value in test [1] (6641, mean of 3) is on record as “Inactive”. Also, the “Emax (1)-(3)” value was “Inactive” in test [1] (individual experiments, FSK (2 µM) = 100% efficacy); 79.79% and 88% on WT RXFP2 (individual experiments, FSK (2 µM) = 100% efficacy, DMSO = 0%). Also, the “Emax (AVERAGE)” value in test [1] (mean (± SEM) of 3, FSK (2 µM) = 100% efficacy) is listed as “Inactive; also recorded: did not stimulate cAMP production”. Moreover, the “agonism of human RXFP2 in CRE-luciferase reporter assay” value on RXFP2 (HEK-CRE-Luc-RXFP2) is “full agonist”. Moreover, the “% Eff (CRE-luciferase)” value at RXFP2 (Log [M] -4.60, 100 nM INSL3 = 100%, DMSO = 0%) was 112.29% and 97.22% and 133.29%; on RXFP2 (Log [M] -5.00), 116.16% and 119.1% and 157.5%; at RXFP2 (Log [M] -5.78), 114.59% and 98.52% and 126.86%; at RXFP2 (Log [M] -6.56) it was 113.18% and 86.94% and 103.38%; at RXFP2 (Log [M] -7.33), 77.02% and 61.6% and 70.55%; on RXFP2 (Log [M] -8.11), 44.24% and 30.05% and 30.02%. Also, the “% Eff (CRE-luciferase)” value on RXFP2 (Log [M] -8.89) was 14.74% and 8.06% and 7.85%; on RXFP2 (Log [M] -9.67), 6.98% and 1.71% and 0.6%. The half-maximal effective concentration (EC50) on WT RXFP2 (6641, individual experiments, read-out: EC50 (1)-(3)) is 4.7 nM and 28 nM and 3.17 nM; at WT RXFP2 (6641, mean (± SEM) of 3, read-out: EC50 (AVERAGE)), 12 nM. The Emax at WT RXFP2 (individual experiments, FSK (2 µM) = 100% efficacy, DMSO = 0%, read-out: Emax (1)-(3)) worked out at 91.1%; on WT RXFP2 (mean (± SEM) of 3, FSK (2 µM) = 100% efficacy, read-out: Emax (AVERAGE)), 86.3%. Besides, on FPR1, the “β-arrestin recruitment, FPR1 (mean ± SEM)” value is 3.11 ± 0.29 fold RLU.
